Read-outs that look alike come from different tables or passages of the source.

The subject of assay [1] is hiPSC-derived immature human dorsal root ganglia neuron-like cells. Nature of the assay: PeriTox (UKN5a) neurite outgrowth assay. It is filed as cell-based. Conditions: for parent/metabolite potency ratio (BMC25): listed under the metabolite. On the procedure: PeriTox assay was performed as previously described. In brief, cryopreserved hiPSC-derived immature human dorsal root ganglia neuron-like cells were thawed and plated at a density of 100,000 cells/cm^2 into matrigel-coated 96-well plates. The cells were cultured in 75 µL PeriTox differentiation medium (PDM) consisting of 25% KSR-S and 75% N2-S media supplemented with 1.5 µM CHIR99021, 1.5 µM SU5402, and 5 µM DAPT (KSR-S: knockout DMEM with 15% serum replacement, 1x Glutamax, 1x nonessential amino acids, and […] beta-mercaptoethanol; N2-S: DMEM/F12, with 2 mM Glutamax, 0.1 mg/mL apotransferrin, 1.55 mg/mL glucose, 25 µg/mL insulin, […] putrescine, 30 nM selenium, and 20 nM progesterone). After one hour, 25 µL PDM with 4x concentrated serial dilutions of the test compounds was added to the cells.
The image acquisition and analysis were conducted according to established protocols. The cells were stained with Hoechst H-33342 (1 µg/mL) to visualise nuclei and calcein-AM (1 µM) to label viable cell structures. Fluorescent images were acquired using an automated imaging system. An image analysis algorithm detected nuclei to define somatic regions, which were then excluded from the total calcein-positive area. The remaining signal was quantified as the neurite area.
In the first step, matched technical replicates were averaged. […] For visualisation, GraphPad Prism 9 was used. […]
Supplementary Figure S1: Comparison of data from the MitoMet test and the PeriTox test. A) Exposure scheme for the PeriTox test (UKN5a):
For testing, cryopreserved hiPSC-derived immature human dorsal root ganglia neuron-like cells were thawed and plated into 96-well plates. Cells were treated with toxicants at one h after plating. Neurite outgrowth and viability were determined at 24 h later, using automated high content imaging. B) Benchmark concentrations (BMC25) were calculated as a measure for “onset of toxicity” for the MitoMet (UKN4b; as described in Figure 1) and UKN5a assay. If no BMC could be determined, the highest tested concentration was used as surrogate endpoint. The arrows indicate the sensitivity shifts of parent vs metabolite in the respective assay. […]

The next assay concerns LUHMES cells. Nature of the assay: MitoMet (UKN4b) neurite outgrowth assay. The format is cell-based, human. The following applies: for IC25: benchmark response 25%, neurite area, 24 h exposure, three independent experiments, read-out: BMC25 neurite outgrowth. The protocol:
Figure 1 (A) A strategy scheme to assess metabolite-mediated hazard in NAMs used for neurotoxicity or developmental neurotoxicity. Parent and metabolite compounds are tested separately in the respective assay. This strategy is applicable when there is prior knowledge of metabolite formation. A decision rule based on the relative toxicities (X) of the parent and metabolite may be applied to decide whether next-generation risk assessment (NGRA) should be applied to the metabolite. The value of X may be defined according to the problem formulation and the NAM used. (B) An assay scheme of the neurite outgrowth assay used here for exemplification: Proliferating LUHMES cells were replated one day before differentiation was initiated (day −1). After two days (day 2) in differentiation medium, the cells were replated into assay format (96-well). At this point, neurite growth was re-initiated. The cells were treated with toxicants 1 h after replating. Neurite outgrowth and viability were determined 24 h later, using automated high content imaging. (C) Comparison of neurite outgrowth of cultures treated with bromethalin and desmethyl-bromethalin one exemplary parent/metabolite pair (chemical structures shown). […] The curves are based on data from three independent experiments and were fitted using a four-parameter Hill function. Data points shown are arithmetic means of data from independent experiments ±SEM. In each independent experiment, the technical replicates were measured and averaged. A benchmark response (BMR) of 25% was used as specified in the detailed assay description, and the respective benchmark concentration (BMC25) was determined. […] (D) Microscopic images of calcein-stained LUHMES cells. Similar images are used for neurite quantification. Treatment with 40 nM of the parent (left) or metabolite (right). The scale bar in orange corresponds to 50 µm. […] It stands under panel C and to the right of panel D, and was assigned to C.
The MitoMet neurite outgrowth assay was performed as previously described. In brief, all cell culture dishes and flasks were pre-coated with 50 μg/mL poly-l-ornithine (PLO) and 1 μg/mL fibronectin. Proliferating LUHMES cells were maintained in AdvDMEM/F12 containing L-glutamine (2 mM), N2 supplement (1x), and FGF (40 ng/mL). For pre-differentiation, the cells were replated at a density of 46,000 cells/cm^2 one day prior to the induction of differentiation (defined as the day of differentiation, Day −1). Differentiation was initiated by exchanging the culture medium for AdvDMEM/F12 supplemented with L-glutamine (2 mM), N2 supplement (1x), dibutyryl-cAMP (1 mM), tetracycline (1 µg/mL), and GDNF (2 ng/mL). After two days of differentiation (Day 2), the cells were replated (100,000 cells/cm^2) into 96-well plates. The final assay medium consisted of glucose-free AdvDMEM/F12 supplemented with galactose (18 mM), L-glutamine (2 mM), and tetracycline (1 µg/mL). One hour after replating, the cells were treated with a 10× concentrated stock solution of the test compound. Neurite outgrowth and viability were determined 24 h later, using automated high content imaging.
The image acquisition and analysis were conducted according to established protocols. The cells were stained with Hoechst H-33342 (1 µg/mL) to visualise nuclei and calcein-AM (1 µM) to label viable cell structures. Fluorescent images were acquired using an automated imaging system.

The subject of assay [2] is hiPSC-derived neural crest-like cells. Nature of the assay: cMINC (UKN2) neural crest cell migration assay. It is filed as cell-based, human. The following applies: listed under the metabolite. The protocol: Figure 6 The transfer of the metabolisation module to the neural crest cell migration assay (cMINC). (A) A schematic of the cMINC (circular migration of neural crest cells) assay. The cells were seeded around a central stopper to create a cell-free circular area. Migration was initiated 24 h after seeding by removing the stopper. This is defined as the day of migration (DoM) 0. On DoM 1, the cells were exposed to toxicants. After 24 h of exposure, both cell migration and viability were quantified, using automated high-content imaging. (B) Compatibility of the metabolisation module (preincubation with 500 µg/mL S9 at 37 °C for 2 h) with the cMINC assay: The setup was as described in Figure 4 and as exemplified in Figure 5A. No compound was added (solvent control). The S9 mixture (at 500 µg/mL ± NADPH) was added to the normal cell culture medium of the cMINC assay (so that the addition was 10% of the total volume). Data are from three independent experiments. (C,D) The concentration-dependent effects on migration were evaluated for metabolite mixtures generated from bromethalin (C) or chlorfenapyr (D). […] The arrows indicate the direction of sensitivity shift between NADPH-dependent and -independent metabolite mixtures, with accompanying fold change values. The concentrations are given as nominal concentrations of the parent compound. Abbreviations: n.s., not significant. TEXT PRINTED IN THE PICTURE: (C) Bromethalin: x30 | (D) Chlorfenapyr: x15
The MINC assay was performed as previously described. Briefly, 96-well plates were prepared by inserting a central 2 mm diameter stopper (Platypus Technologies, Madison, WI, USA) into pre-coated wells with a composite poly-L-ornithine (PLO; 10 µg/mL), fibronectin (1 µg/mL), and laminin (1 µg/mL) matrix. […] After a further 24 h (DoM 2), cell migration and viability were assessed. […] High content imaging was performed, and data were analysed using the RingAssay V1 software (http://invitrotox.uni-konstanz.de/, accessed on 3 February 2025). […]

For `O=C(c1ccccc1)c1ccccc1` [Benzophenone], the “effect on peripheral neurite outgrowth” value in assay [1] (result in words) is “neither benzophenone nor its hydroxy metabolite showed any significant effect”. The IC25 in the assay with LUHMES cells (Homo sapiens) is greater than 500 µM.

Regarding `COC(=O)Nc1nc2ccccc2[nH]1` [Carbendazim], the “parent/metabolite potency ratio (BMC25)” value in assay [1] is reported as 0.2. Also, the IC25 with LUHMES cells (Homo sapiens) was 4.8 µM.

As to `O=[N+]([O-])c1cc([N+](=O)[O-])c(Nc2c(Br)cc(Br)cc2Br)c(C(F)(F)F)c1` [Desmethyl-bromethalin], in assay [1], the “parent/metabolite potency ratio (BMC25)” value is recorded as 3. In the assay with LUHMES cells (40 nM, calcein-stained LUHMES cells), the “neurite area, metabolite compared to parent at equimolar concentrations” value is “clear reduction in the neurite area”. Also, the IC25 with LUHMES cells was 0.014 µM. The “fold change between BMC25 values of parent and metabolite (potency ratio, parent divided by metabolite)” value in the assay with LUHMES cells (listed under the metabolite, >1 = metabolite more potent) came to 57 fold. The “increase in potency of metabolite compared to parent (BMC25 ratio)” value in assay [2] was 44 fold.

The values are drawn from publication PMC12428754, “Testing Strategies for Metabolite-Mediated Neurotoxicity” (International Journal of Molecular Sciences, 2025).
